Measured values from publication PMC4610307 (Journal of Medicinal Chemistry, 2015).

Columns and labels:
CARM1/PRMT4 = biological target: T1, CARM1/PRMT4 (Homo sapiens, UniProt Q86X55); assay: IC50 and nH determination, CARM1; format: biochemical; details: ratio of IC50 values
T1 sequence (Q86X55 1-608): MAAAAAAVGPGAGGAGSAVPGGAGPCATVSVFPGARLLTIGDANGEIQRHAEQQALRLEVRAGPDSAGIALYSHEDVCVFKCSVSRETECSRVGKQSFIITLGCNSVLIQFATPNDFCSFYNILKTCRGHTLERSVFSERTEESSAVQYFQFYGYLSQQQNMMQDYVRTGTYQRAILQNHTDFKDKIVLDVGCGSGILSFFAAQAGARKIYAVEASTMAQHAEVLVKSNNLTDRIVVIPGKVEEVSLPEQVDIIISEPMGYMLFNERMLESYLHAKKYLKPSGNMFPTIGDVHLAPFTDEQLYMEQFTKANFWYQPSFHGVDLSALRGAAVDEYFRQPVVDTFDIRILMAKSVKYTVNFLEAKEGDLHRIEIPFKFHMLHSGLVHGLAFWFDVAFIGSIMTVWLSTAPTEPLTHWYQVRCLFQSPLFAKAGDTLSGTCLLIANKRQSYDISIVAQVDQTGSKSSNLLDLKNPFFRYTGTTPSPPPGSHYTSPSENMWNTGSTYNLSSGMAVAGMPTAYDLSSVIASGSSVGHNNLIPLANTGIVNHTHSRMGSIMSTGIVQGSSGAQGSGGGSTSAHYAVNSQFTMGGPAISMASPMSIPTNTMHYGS

PRMT5 = PRMT5 (Homo sapiens, UniProt O14744); assay: IC50 and nH determination, PRMT5; format: biochemical; details: ratio of IC50 values
PRMT5, sequence (O14744 whole entry, species assumed): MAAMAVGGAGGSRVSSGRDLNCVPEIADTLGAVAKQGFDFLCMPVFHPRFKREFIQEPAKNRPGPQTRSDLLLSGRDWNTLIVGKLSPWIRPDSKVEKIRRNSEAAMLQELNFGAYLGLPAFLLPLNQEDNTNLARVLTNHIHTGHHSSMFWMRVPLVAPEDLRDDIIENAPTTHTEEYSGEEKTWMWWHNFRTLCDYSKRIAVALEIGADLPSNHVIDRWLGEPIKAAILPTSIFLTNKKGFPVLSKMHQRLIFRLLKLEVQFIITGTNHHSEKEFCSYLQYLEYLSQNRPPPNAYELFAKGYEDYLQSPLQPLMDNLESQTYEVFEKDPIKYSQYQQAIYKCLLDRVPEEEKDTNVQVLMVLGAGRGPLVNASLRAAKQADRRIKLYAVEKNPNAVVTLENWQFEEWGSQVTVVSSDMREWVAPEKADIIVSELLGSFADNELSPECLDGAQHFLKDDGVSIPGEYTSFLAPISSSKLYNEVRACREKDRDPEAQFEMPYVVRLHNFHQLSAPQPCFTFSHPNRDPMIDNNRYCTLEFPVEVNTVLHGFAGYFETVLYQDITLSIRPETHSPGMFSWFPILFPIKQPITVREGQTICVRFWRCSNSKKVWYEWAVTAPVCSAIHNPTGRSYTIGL
PRMT5, sequence (Q9BQA1 whole entry partner, species assumed): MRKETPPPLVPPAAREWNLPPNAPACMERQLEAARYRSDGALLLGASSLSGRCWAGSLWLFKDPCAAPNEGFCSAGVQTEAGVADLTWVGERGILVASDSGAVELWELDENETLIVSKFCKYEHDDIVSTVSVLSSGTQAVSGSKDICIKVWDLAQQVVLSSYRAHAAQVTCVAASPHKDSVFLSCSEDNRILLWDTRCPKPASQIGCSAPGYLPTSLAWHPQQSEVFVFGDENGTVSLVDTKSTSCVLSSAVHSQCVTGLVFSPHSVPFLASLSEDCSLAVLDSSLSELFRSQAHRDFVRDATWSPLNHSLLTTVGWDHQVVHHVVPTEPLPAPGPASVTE

PRMT8 = PRMT8 (Homo sapiens, UniProt Q9NR22); assay: IC50 and nH determination, PRMT8; format: biochemical; details: ratio of IC50 values
PRMT8, sequence (Q9NR22 whole entry, species assumed): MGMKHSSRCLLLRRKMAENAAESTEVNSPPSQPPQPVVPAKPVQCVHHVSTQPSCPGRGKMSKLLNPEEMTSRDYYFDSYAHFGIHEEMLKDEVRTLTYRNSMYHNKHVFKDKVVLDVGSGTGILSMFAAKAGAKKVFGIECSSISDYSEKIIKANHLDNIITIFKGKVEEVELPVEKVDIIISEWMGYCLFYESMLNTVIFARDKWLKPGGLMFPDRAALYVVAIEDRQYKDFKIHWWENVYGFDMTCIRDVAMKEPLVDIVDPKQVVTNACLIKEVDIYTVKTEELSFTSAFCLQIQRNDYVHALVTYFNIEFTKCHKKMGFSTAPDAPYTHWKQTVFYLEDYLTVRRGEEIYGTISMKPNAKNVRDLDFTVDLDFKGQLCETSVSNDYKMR

PRMT1 [1] = biological target: T2, PRMT1 (Homo sapiens, UniProt Q99873); assay: Fluorescence titration of compound 50 by PRMT1; format: binding; details: excitation 620 nm
T2 sequence (Q99873 1-353 isoform Q99873-3): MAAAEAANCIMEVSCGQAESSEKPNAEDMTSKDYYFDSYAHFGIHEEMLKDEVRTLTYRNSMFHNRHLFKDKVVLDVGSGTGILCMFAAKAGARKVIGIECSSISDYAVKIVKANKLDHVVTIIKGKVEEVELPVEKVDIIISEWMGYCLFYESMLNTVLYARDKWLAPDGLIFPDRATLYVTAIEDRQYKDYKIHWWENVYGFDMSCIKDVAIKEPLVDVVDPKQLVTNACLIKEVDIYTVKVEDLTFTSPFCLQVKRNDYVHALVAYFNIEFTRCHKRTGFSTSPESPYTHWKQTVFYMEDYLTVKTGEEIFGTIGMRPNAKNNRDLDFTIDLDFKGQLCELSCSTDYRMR

Meg01 cells = assay: Cell viability assay; format: cell-based
MOLM13 cells = assay: Cell viability assay; format: cell-based
HEL cells = assay: Cell viability assay; format: cell-based
[2] = tested on: total protein arginine methylation in Meg01, MOLM13, and HEL cells; assay: Western blot of total protein arginine methylation in treated leukemia cells; format: cell-based; details: 24 h of treatment; anti-methyl-R antibodies
His6x-PRMT1 = His6x-PRMT1 (Homo sapiens, UniProt Q99873); assay: Single-dose inhibition study with PRMT1 enzyme; format: biochemical; details: compound at 10 μM, N.I. = no inhibition
His6x-PRMT1, sequence (Q99873 1-353 isoform Q99873-3): as above

PRMT1 [3] = biological target: T2, PRMT1; assay: IC50 and nH determination, PRMT1; format: biochemical

C(/C=C/c1sc2c3ccccc3ccc2[n+]1CCCc1ccccc1)=C1/Sc2c(ccc3ccccc23)N1CCCc1ccccc1.[I-] [Compound 47, 3-(3-Phenylpropyl)-2-((1E,3Z)-3-(3-(3-phenylpropyl)naphtho[2,1-d]thiazol-2(3H)-ylidene)prop-1-en-1-yl)naphtho[2,1-d]thiazol-3-ium Iodide]
selectivity for PRMT1 over CARM1 (CARM1/PRMT4): about 2 fold
selectivity for PRMT1 over PRMT5 (PRMT5): about 2 fold
selectivity for PRMT1 over PRMT8 (PRMT8): more than 9 fold

CCCCN1/C(=C/C=C(Br)/C=C/C2=[N+](CCCC)c3ccc(Br)cc3C2(C)C)C(C)(C)c2cc(Br)ccc21.[I-] [Compound 50, 5-Bromo-2-((1E,3Z)-3-bromo-5-((E)-5-bromo-1-butyl-3,3-dimethylindolin-2-ylidene)penta-1,3-dien-1-yl)-1-butyl-3,3-dimethyl-3H-indol-1-ium Iodide]
fluorescence intensity increase upon binding to PRMT1 (PRMT1 [1]): about 6 fold
concentration that significantly inhibited leukemia cell growth (Meg01 cells): 100 nM
concentration that significantly inhibited leukemia cell growth (MOLM13 cells): 100 nM
concentration that significantly inhibited leukemia cell growth (HEL cells): 200 nM
total protein arginine methylation level [2]: significant loss of total protein arginine methylation

CCCCN1/C(=C/C=C/C2=[N+](CCCC)c3ccccc3C2(C)C)C(C)(C)c2ccccc21.[I-] [Compound E-6]
Inhibition (10 μM) (His6x-PRMT1; PRMT1, 10 µM): no inhibition

CC1(C)C(/C=C/C=C2/N(CCCc3ccccc3)c3ccc4ccccc4c3C2(C)C)=[N+](CCCc2ccccc2)c2ccc3ccccc3c21.[Br-] [Compound E-8]
fold more potent on PRMT1 than naphthothiazolium counterpart 47 (PRMT1 [3]; IC50 0.61 μM vs 3.05 μM): about 5 fold

CCN1/C(=C/C(C)=C/c2sc3c4ccccc4ccc3[n+]2CC)Sc2c1ccc1ccccc21 [Compound 48, 3-Ethyl-2-((1E,3Z)-3-(3-ethylnaphtho[2,1-d]thiazol-2(3H)-ylidene)-2-methylprop-1-en-1-yl)naphtho[2,1-d]thiazol-3-ium Iodide]
inhibition at 10 µM (His6x-PRMT1; read-out: Inhibition (10 μM), PRMT1): 90%

CC1(C)C(/C=C/C=C2/N(CCCc3ccccc3)c3ccc(Cl)cc3C2(C)C)=[N+](CCCc2ccccc2)c2ccc(Cl)cc21.[Br-] [Compound 24, 5-Chloro-2-((E)-3-((E)-5-chloro-3,3-dimethyl-1-(3-phenylpropyl)indolin-2-ylidene)prop-1-en-1-yl)-3,3-dimethyl-1-(3-phenylpropyl)-3H-indol-1-ium Bromide]
selectivity for PRMT1 over other PRMTs (CARM1, PRMT5, and PRMT8) (PRMT1 [3]; overall statement): no selectivity
